Test [1] concerns the target Mitogen-activated protein kinase 1 (Homo sapiens) (UniProt P28482). Description: Inhibition of MAPK1 assessed as activity remaining at 10 uM.
For test [2], the target named is RAF proto-oncogene serine/threonine-protein kinase (Homo sapiens) (UniProt P04049). The experiment in a line: Inhibition of cRaf assessed as activity remaining at 10 uM.
Test [3] in a line: Inhibition of CK2 assessed as activity remaining at 10 uM.
Test [4] deals with Glycogen synthase kinase-3 beta (Homo sapiens) (UniProt P49841). The experiment in a line: Inhibition of GSK3-beta assessed as activity remaining at 10 uM.
Glycogen synthase kinase-3 beta (Homo sapiens), sequence (P49841 whole entry, looked up): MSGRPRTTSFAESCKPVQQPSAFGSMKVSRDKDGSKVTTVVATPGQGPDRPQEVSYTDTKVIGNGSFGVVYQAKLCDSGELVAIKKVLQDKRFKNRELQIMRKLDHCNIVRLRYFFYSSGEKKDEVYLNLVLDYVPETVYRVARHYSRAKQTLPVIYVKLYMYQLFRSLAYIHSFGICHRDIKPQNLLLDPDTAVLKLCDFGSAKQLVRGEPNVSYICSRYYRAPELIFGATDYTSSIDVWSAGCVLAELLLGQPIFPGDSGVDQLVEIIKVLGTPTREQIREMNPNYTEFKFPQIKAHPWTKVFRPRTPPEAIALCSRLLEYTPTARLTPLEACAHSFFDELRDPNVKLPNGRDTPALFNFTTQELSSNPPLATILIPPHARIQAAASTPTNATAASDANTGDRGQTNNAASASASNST
The target in test [5] is Misshapen-like kinase 1 (Homo sapiens) (UniProt Q8N4C8). Description: Inhibition of MINK assessed as activity remaining at 10 uM.
Misshapen-like kinase 1 (Homo sapiens), sequence (Q8N4C8 whole entry, looked up): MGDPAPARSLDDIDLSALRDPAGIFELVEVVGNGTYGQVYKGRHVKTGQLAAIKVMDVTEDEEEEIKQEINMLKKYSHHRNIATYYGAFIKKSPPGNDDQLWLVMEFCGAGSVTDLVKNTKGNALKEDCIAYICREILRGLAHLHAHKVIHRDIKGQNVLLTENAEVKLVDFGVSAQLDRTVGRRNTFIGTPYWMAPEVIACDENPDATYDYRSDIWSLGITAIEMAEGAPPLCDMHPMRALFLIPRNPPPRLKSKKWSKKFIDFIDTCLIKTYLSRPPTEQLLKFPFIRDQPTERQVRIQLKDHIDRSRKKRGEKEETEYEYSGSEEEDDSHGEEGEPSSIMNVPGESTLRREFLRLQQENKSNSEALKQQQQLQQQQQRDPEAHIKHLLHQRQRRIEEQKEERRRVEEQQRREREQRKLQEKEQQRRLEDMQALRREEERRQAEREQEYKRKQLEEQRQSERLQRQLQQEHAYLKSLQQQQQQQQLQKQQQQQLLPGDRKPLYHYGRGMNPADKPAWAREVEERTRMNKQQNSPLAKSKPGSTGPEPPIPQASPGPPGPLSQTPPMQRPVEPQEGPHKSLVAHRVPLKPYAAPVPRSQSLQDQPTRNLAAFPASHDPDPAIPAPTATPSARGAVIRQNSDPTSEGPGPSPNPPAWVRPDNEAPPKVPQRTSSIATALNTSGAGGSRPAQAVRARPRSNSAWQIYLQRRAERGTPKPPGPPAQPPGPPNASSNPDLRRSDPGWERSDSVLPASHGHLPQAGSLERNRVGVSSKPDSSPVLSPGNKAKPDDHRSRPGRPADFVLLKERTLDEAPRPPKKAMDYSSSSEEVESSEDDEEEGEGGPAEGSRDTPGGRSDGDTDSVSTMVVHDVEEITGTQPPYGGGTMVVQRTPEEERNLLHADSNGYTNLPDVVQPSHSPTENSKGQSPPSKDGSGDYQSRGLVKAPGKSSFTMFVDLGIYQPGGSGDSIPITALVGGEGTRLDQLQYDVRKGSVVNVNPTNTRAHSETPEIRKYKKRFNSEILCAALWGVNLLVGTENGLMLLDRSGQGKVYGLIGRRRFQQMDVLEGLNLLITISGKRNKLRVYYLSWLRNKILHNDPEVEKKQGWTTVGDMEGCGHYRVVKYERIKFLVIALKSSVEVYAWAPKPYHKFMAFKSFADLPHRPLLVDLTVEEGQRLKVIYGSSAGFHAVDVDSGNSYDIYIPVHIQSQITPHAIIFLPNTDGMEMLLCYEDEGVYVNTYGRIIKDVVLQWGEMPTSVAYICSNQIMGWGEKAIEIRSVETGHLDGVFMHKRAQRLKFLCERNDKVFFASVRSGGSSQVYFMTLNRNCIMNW
A short description of test [6]: Inhibition of p70S6K assessed as activity remaining at 10 uM.
Test [7] addresses Rho-associated protein kinase 1 (Homo sapiens) (UniProt Q13464). Description: Inhibition of ROCK1 assessed as activity remaining at 10 uM.
Test [8] deals with RAC-alpha serine/threonine-protein kinase (Homo sapiens) (UniProt P31749). Description: Inhibition of PKB-alpha assessed as activity remaining at 10 uM.
In test [9] the target is T1, Serine/threonine-protein kinase Nek2 (Homo sapiens) (UniProt P51955).
T1 sequence (whole entry): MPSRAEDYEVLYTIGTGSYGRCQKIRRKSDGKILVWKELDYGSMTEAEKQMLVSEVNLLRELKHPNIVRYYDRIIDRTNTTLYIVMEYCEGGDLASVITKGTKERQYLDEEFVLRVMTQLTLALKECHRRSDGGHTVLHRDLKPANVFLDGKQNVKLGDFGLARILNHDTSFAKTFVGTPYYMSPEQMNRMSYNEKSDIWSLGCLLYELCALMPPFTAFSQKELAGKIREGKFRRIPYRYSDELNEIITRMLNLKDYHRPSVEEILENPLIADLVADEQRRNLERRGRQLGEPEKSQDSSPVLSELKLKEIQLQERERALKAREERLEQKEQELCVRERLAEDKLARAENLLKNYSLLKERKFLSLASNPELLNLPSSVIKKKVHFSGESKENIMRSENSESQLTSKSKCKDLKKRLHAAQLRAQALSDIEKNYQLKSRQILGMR
Description: Inhibition of NEK2 assessed as activity remaining at 10 uM.

Test [10] concerns the target T2, Serine/threonine-protein kinase Chk1 (Homo sapiens) (UniProt O14757).
T2 sequence (whole entry): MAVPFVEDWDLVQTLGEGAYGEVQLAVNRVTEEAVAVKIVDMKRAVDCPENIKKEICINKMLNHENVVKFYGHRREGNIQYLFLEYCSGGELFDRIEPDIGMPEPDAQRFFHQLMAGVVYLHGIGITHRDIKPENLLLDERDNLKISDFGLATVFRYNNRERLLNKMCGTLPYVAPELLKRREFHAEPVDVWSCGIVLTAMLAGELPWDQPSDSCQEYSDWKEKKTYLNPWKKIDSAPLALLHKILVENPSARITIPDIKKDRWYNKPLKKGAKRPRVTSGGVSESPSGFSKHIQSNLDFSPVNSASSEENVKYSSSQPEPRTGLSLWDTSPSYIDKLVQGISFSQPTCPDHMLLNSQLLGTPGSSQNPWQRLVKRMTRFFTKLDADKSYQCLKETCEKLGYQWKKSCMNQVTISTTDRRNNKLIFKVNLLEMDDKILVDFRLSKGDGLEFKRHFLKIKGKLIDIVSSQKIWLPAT
Description: Inhibition of CHK1 assessed as activity remaining at 10 uM.

The target in test [11] is Receptor-type tyrosine-protein kinase FLT3 (Homo sapiens) (UniProt P36888). The experiment in a line: Inhibition of Flt3 assessed as activity remaining at 10 uM.
Receptor-type tyrosine-protein kinase FLT3 (Homo sapiens), sequence (P36888 whole entry): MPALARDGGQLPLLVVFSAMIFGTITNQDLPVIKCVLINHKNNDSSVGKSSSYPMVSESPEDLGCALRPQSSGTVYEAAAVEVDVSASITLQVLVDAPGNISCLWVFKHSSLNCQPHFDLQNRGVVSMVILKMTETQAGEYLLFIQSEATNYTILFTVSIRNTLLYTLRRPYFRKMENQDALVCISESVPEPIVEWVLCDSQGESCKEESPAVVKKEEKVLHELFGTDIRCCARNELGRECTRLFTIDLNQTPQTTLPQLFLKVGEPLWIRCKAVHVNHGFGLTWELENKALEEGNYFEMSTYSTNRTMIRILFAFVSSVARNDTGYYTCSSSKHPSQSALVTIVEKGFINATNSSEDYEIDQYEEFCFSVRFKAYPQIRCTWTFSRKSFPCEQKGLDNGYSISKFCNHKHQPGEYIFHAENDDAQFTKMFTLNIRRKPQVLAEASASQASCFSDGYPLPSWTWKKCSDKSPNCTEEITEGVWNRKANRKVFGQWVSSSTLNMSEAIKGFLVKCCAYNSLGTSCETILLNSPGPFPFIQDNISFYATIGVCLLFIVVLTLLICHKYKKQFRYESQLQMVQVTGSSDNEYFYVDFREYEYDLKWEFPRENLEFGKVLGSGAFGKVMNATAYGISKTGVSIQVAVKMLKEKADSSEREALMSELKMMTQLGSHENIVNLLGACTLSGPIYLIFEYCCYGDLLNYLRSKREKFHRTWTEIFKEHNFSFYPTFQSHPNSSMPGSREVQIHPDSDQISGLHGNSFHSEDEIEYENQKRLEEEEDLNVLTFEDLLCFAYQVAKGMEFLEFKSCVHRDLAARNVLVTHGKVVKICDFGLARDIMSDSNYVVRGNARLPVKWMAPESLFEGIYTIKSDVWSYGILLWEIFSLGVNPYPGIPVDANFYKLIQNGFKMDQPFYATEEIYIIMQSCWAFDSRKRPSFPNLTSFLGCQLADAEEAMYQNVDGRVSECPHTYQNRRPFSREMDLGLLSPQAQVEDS
In test [12] the target is T3, Tyrosine-protein kinase receptor TYRO3 (Homo sapiens) (UniProt Q06418).
T3 sequence (whole entry): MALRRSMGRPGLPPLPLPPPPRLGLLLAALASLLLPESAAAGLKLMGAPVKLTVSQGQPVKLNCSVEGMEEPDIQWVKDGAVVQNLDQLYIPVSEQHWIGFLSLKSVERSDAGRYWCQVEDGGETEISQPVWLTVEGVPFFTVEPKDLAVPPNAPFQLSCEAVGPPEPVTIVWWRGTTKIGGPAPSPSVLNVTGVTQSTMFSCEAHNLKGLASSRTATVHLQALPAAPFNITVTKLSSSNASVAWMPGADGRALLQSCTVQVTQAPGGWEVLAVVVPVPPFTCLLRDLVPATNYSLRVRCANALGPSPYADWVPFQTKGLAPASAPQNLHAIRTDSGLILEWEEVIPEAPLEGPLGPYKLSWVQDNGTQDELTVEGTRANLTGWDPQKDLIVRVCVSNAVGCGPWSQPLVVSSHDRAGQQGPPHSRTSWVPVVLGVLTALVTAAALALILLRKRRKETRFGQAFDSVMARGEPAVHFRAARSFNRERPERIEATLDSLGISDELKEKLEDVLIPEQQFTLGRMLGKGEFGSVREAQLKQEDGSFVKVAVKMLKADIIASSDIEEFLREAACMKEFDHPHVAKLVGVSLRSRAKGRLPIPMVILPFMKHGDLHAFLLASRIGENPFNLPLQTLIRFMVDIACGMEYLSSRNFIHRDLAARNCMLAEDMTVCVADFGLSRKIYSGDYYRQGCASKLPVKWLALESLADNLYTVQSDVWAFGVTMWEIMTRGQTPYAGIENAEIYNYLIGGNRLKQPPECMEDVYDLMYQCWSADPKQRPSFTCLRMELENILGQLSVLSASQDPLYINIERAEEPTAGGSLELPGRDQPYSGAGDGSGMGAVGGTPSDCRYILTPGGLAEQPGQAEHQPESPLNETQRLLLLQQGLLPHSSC
The experiment in a line: Inhibition of Rse assessed as activity remaining at 10 uM.

For test [13], the target named is Serine/threonine-protein kinase PAK 4 (Homo sapiens) (UniProt O96013). The experiment in a line: Inhibition of PAK4 assessed as activity remaining at 10 uM.
In test [14] the target is Angiopoietin-1 receptor (Homo sapiens) (UniProt Q02763). Description: Inhibition of Tie2 assessed as activity remaining at 10 uM.
The target of test [15] is Tyrosine-protein kinase CSK (Homo sapiens) (UniProt P41240). The experiment in a line: Inhibition of CSK assessed as activity remaining at 10 uM.

Activity data for three compounds are collected here from ChEMBL document CHEMBL1944561, “Discovery and SAR exploration of a novel series of imidazo[4,5-b]pyrazin-2-ones as potent and selective mTOR kinase inhibitors” (Bioorg Med Chem Lett, 2011).

Rho-associated protein kinase 1 (Homo sapiens), sequence (Q13464 2-1354 limits assumed): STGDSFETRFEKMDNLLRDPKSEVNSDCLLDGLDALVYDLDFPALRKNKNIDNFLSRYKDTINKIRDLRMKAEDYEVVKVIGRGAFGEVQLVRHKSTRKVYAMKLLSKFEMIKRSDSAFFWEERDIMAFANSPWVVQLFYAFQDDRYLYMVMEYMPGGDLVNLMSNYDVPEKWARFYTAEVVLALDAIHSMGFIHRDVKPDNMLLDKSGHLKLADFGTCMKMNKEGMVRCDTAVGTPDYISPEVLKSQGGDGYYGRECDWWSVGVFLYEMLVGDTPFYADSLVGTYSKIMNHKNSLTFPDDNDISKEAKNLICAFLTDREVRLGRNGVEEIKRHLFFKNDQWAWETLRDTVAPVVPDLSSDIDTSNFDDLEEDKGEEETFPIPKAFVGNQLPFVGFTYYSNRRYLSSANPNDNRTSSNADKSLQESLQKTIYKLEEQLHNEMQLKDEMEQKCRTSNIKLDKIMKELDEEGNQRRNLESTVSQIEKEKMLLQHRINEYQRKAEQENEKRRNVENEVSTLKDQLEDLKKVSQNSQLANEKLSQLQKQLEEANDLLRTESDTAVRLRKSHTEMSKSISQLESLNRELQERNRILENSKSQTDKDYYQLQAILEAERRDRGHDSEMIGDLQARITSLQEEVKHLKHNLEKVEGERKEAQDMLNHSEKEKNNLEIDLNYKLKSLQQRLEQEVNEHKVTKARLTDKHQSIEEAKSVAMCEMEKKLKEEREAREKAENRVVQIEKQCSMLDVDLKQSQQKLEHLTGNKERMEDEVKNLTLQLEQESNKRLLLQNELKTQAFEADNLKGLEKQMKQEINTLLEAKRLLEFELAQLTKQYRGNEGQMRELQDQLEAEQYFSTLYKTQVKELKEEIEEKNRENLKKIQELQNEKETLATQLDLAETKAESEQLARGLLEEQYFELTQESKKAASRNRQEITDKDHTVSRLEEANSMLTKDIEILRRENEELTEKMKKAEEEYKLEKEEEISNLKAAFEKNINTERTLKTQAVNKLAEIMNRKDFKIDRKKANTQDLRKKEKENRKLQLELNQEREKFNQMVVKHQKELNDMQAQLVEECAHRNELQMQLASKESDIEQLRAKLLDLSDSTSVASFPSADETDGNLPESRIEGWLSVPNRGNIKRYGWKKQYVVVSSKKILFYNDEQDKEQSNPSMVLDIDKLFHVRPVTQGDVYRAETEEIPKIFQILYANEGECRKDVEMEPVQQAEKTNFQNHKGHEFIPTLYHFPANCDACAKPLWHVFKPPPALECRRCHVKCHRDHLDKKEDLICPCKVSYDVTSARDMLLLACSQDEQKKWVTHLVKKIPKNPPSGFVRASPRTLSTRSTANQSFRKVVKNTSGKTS
RAF proto-oncogene serine/threonine-protein kinase (Homo sapiens), sequence (P04049 whole entry): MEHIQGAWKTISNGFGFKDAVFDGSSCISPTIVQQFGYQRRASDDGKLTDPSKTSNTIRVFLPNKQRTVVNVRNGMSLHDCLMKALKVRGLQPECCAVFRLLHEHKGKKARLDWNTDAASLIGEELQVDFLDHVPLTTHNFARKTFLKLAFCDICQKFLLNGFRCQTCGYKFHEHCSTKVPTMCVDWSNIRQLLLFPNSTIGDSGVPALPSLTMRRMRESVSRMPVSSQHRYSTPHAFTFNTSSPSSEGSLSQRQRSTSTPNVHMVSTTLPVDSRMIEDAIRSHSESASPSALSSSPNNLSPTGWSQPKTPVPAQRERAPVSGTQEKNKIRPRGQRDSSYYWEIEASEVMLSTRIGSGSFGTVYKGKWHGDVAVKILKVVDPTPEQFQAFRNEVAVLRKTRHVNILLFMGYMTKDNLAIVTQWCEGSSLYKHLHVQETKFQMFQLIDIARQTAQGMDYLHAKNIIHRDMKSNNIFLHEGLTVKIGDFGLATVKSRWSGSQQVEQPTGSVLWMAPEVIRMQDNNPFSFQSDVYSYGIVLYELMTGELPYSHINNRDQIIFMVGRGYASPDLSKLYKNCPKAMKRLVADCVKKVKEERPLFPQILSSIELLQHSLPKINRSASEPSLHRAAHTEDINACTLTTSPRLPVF

Turning to `CC(C)(O)c1ccc(-c2cnc3[nH]c(=O)n(CC4CCCCC4)c3n2)cc1`, the Activity stood at 95% in test [1]; 87% in test [2]; 95% in [3]; 31% in [4]; 83% in test [5]; 99% in test [6]. The Activity in test [7] came to 97%; in test [8] it was 94%; in [9] it was 98%; in test [10], 93%; in test [11], 71%; in [12], 74%. In addition, the Activity in [13] amounted to 87%; in test [14], 85%; in test [15] it was 86%.
In the case of `O=c1[nH]c2ncc(-c3ccc4[nH]cnc4c3)nc2n1CC1CCCCC1`, the Activity stood at 110% in test [1]; 84% in test [2]; 73% in test [3]; 10% in test [4]; 42% in [5]; 86% in [6]. Moreover, the Activity was found to be 96% in test [7]; 92% in test [8]; 98% in test [9]; 88% in [10]; 46% in test [11]; 88% in [12]. Moreover, the Activity amounted to 81% in [13], 83% in [14] and 90% in [15].
For the compound `O=c1[nH]c2ncc(-c3ccc(-c4nc[nH]n4)cc3)nc2n1CC1CCOCC1`, the Activity in [1] is 86%; in test [2] it was 70%; in [3] it was 99%; in [4] it was 70%; in [5], 92%; in [6], 96%. Moreover, the Activity in [7] was 96%; in [8] it was 97%; in test [9] it was 103%; in [10] it was 97%; in test [11], 55%; in test [12], 86%. The Activity in test [13] is 87%; in test [14], 86%; in test [15] it was 96%.
